From ChEMBL document CHEMBL1146908, “Synthesis of 16-mercaptohexadecylphosphocholine, a miltefosine analog with leishmanicidal activity” (2006)

Key:
Assay type in all cases: functional
Details in all cases: read-out: LD50 (the source's name)
Leishmania donovani [1] = experiment: Antileishmanial activity against Leishmania donovani promastigotes by MTT assay
Leishmania mexicana [2] = experiment: Antileishmanial activity against miltefosine-resistant Leishmania pifanoi axenic amastigotes by MTT assay
Leishmania mexicana [3] = experiment: Antileishmanial activity against Leishmania pifanoi axenic amastigotes by MTT assay
Leishmania donovani [4] = experiment: Antileishmanial activity against miltefosine-resistant Leishmania donovani promastigotes by MTT assay

Row | SMILES | LC50 (Leishmania donovani [1]) | LC50 (Leishmania mexicana [2]) | LC50 (Leishmania mexicana [3]) | LC50 (Leishmania donovani [4])
1 | C[N+](C)(C)CCOP(=O)([O-])OCCCCCCCCCCCCCCCCS | 5.1 µM | > 50 µM | 5.5 µM | > 50 µM
2 | CCCCCCCCCCCCCCCCOP(=O)([O-])OCC[N+](C)(C)C [MILTEFOSINE] | 5.3 µM | > 50 µM | 5 µM | > 50 µM
